Values after ≈ are worked out from the molar mass of the structure shown. “Also recorded” adds a separate entry of the source.
Experiments:
[1] = Evaluation of solubility of dyes; assay type: physicochemical; settings: for Dissolving in DMSO: DMSO added to a dye concentration of about 100 mM; for solubility: extracellular fluid (Artificial Cerebrospinal Fluid), aqueous buffer, kinetic from dmso stock; for solubility / Solubility (μM): solubility into a buffer, DMSO solution diluted 1000 times with extracellular fluid; for Solubility into a buffer: result in words
Protocol: Furthermore, using anionic, neutral, zwitter, and dicationic dyes shown in Table 1, solubility into a buffer, toxicity, and presence or absence of SHG and TPF signals when applied to cultured cells (CHO cells) were evaluated, respectively. Herein, the dyes #1 to 5 are dyes for generating a second harmonic of light outside of the range of the present invention, and the dyes #6 and 7 are dyes for generating a second harmonic of light within the range of the present invention.
DMSO (dimethyl sulfoxide) was added to the synthesized dye group (dyes #1 to #7) in Table 2 to have a concentration of a dye at about 100 mM and dissolving was attempted.
(§1) DMSO solutions of the dyes #1 to #3, #4, #5 and Ap3 were diluted 1000 times using an extracellular fluid (Artificial Cerebrospinal Fluid), and when all were assumed to be dissolved, the final concentration was set at about 100 μM.

CHO cells [2] = assay: Evaluation of SHG and TPF signals of dyes applied to CHO cells; assay type: cell-based, Chinese Hamster; settings: about 100 μM dye, pulse laser at 1,000 nm, qualitative comparison
Protocol: as §1
A CHO (Chinese Hamster Ovary) cell cultured on a cover glass was used as an observation subject, immersed into the above described dye solution to try dyeing a cell membrane, and directly observed under a microscope within several minutes.
A multiphoton laser microscope system (FV1000MPE manufactured by Olympus Corporation) on which an ultrashort femtosecond laser (MaitaiHP manufactured by Newport) was mounted was used for the observation, and SHG and two-photon fluorescence (Two-Photon Fluorescence: TPF) after irradiation by a pulse laser at 1,000 nm were observed under the same detection condition for each dye. Three images were obtained by changing fields of view per each dye, and signal intensities were qualitatively compared among the dyes. FIGS. 4 to 6 show images of Comparative Examples 4 to 6, and FIGS. 7 and 8 show images of Examples 2 and 3, respectively.

CHO cells [3] = assay: Evaluation of cytotoxicity of dyes (cell forms before and after dyeing); assay type: cell-based, Chinese Hamster; settings: cell form before and after dyeing, differential interference figure
Protocol: For evaluation of cytotoxicity due to a dye, cell forms before and after dyeing were confirmed from a differential interference figure using near-infrared light. Cytotoxicity was evaluated by particularly focusing on two points that 1) a cell having an extended structure due to interaction with an extracellular matrix loses its adhesion to thus separate from a cover glass and is rounded, and 2) a cell membrane having a smooth form becomes an inhomogeneous and uneven form, when the physiological condition of the cell deteriorates.

[4] = system: cultured human normal astrocyte; assay: SHG and TPF imaging of dye introduced into cultured human normal astrocyte; assay type: cell-based; settings: 100 μM dye in buffer, introduced by pipette, 1,000 nm exciting light; for SHG signal: SHG at 500 nm
Protocol: A buffer containing 100 μM of FM4-64 was prepared and introduced into a cultured human normal astrocyte using a pipette. The dye that was introduced into the cell spreads throughout the entire cell over time.
For the measurement, a multiphoton microscope capable of SHG imaging and TPF imaging obtained by incorporating a tunable femtosecond mode synchronous infrared laser into a commercially available confocal laser scanning microscope was used as the light source. By irradiating with 1,000 nm of exciting light, an SHG signal light having a wavelength of 500 nm is generated from the dye in the same direction as the direction in which an infrared pulse laser travels. The signal can be detected in a photomultiplier tube provided on the laser light traveling direction side. A back scattered component of the TPF signal light is also observed by irradiating with the same exciting light.
SHG and TPF imaging was carried out in the same manner as Comparative Example 1 except for using Ap1 to Ap3 as dyes, and these cases were Comparative Examples 2 and 3 and Example 1, respectively.

nerve cell = settings: dye introduced from the cell exterior, femtosecond laser; cited from earlier work

CCCCCCCCN(CCCCCCCC)c1ccc(/N=N/c2ccc(S(=O)(=O)O)cc2)cc1 [#3]
Dissolving in DMSO [1]: easily dissolved
solubility [1]: ~100 µM (≈ 50.2 µg/mL)
SHG signal (CHO cells [2]): Good
TPF signal (CHO cells [2]): None
Toxicity (CHO cells [3]): Some

CCCCCCN(CCCCCC)c1ccc(/N=N/c2cc[n+](CCC[N+](CC)(CC)CC)cc2)cc1 [Ap3]
TPF signal [4]: not observed
SHG signal [4]: can be observed
solubility [1]: 100 µM
Solubility into a buffer [1]: no problem
SHG signal (CHO cells [2]): observed and Good
TPF signal (CHO cells [2]): not observed and None
Toxicity (CHO cells [3]): no problem; also recorded: Little

CCCCCCN(CCCCCC)c1ccc(/N=N/c2cc[n+](CCCS(=O)(=O)[O-])cc2)cc1 [#6, (E)-3-(4-((4-(dihexylamino)phenyl)diazenyl)pyridin-1-ium-1-yl)propane-1-sulfonate]
Dissolving in DMSO [1]: poor solubility
solubility [1]: < 100 µM
Solubility into a buffer [1]: no problem
SHG signal (CHO cells [2]): observed and Fine
TPF signal (CHO cells [2]): not observed and None
Toxicity (CHO cells [3]): no problem; also recorded: Little

CCCCCCN(CCCCCC)c1ccc(/N=N/c2ccc(S(=O)(=O)O)cc2)cc1 [#2]
Dissolving in DMSO [1]: easily dissolved
solubility [1]: ~100 µM (≈ 44.6 µg/mL)
SHG signal (CHO cells [2]): Good
TPF signal (CHO cells [2]): None
Toxicity (CHO cells [3]): High

CCCCN(CCCC)c1ccc(/N=N/c2ccc(S(=O)(=O)O)cc2)cc1 [#1]
Dissolving in DMSO [1]: easily dissolved
solubility [1]: ~100 µM (≈ 39 µg/mL)
SHG signal (CHO cells [2]): Good
TPF signal (CHO cells [2]): None
Toxicity (CHO cells [3]): High

CCCCCCN(CCCCCC)c1ccc(/N=N/c2ccc(C=O)cc2)cc1 [#4]
Dissolving in DMSO [1]: no dissolving
Solubility (μM) [1]: Insoluble
SHG signal (CHO cells [2]): not obtained at all
TPF signal (CHO cells [2]): not obtained at all

CCCCCCCCN(CCCCCCCC)c1ccc(/N=N/c2cc[n+](CCCS(=O)(=O)[O-])cc2)cc1 [#7, (E)-3-(4-((4-(dioctylamino)phenyl)diazenyl)pyridin-1-ium-1-yl)propane-1-sulfonate]
Dissolving in DMSO [1]: poor solubility
solubility [1]: < 100 µM
Solubility into a buffer [1]: no problem
SHG signal (CHO cells [2]): observed and Fine
TPF signal (CHO cells [2]): not observed and None
Toxicity (CHO cells [3]): no problem; also recorded: Little

CCN(CC)c1ccc(/C=C/C=C/C=C/c2cc[n+](CCC[N+](CC)(CC)CC)cc2)cc1 [FM4-64, reference compound]
TPF signal [4]: observed
SHG signal [4]: observed
Fluorescent (TPF) signal (nerve cell): detected
SHG signal (nerve cell): very strong

CCCCCCN(CCCCCC)c1ccc(/N=N/c2ccc(C=C(C#N)C#N)cc2)cc1 [#5]
Dissolving in DMSO [1]: no dissolving
Solubility (μM) [1]: Insoluble
SHG signal (CHO cells [2]): not obtained at all
TPF signal (CHO cells [2]): not obtained at all
